Inhibition in vivo data for 23 compounds are collected here from patent US8993562B2, “Imidazo[1,2-b]pyridazines, processes, uses, intermediates and compositions” (Ferrer Internacional, S.A., priority 2006, dated 2015).

Structures are written as SMILES.

The test system of this experiment is male CD1 mice. Briefly: In vivo predictive sedation-hypnosis test (traveled distance). As to conditions: Mus musculus, ip, 0.5 h, traveled distance over 30 min versus control, read-out: % inhib motor activity; for inhibition in vivo at 0.98 µmol/kg: 0.98 μmol/kg intraperitoneal; for inhibition in vivo at 98 µmol/kg: 98.0 μmol/kg intraperitoneal. The method, then:
b) In Vivo Determination of Predictive Sedative-hypnotic Action
The in vivo effects of these compounds were assessed by a predictive sedation-hypnosis test in mice (D. J. Sanger et al., Eur. J. Pharmacol., 313, 35-42, 1996; and G. Griebel et al., Psychopharmacology, 146, 205-213, 1999).
Groups of 5-8 male CD1 mice, weighing 22-26 g at the time of test, were used. […] Compounds were suspended in 0.25% agar with one drop of Tween in a volume of 10 mL/kg. Control animals were given the vehicle alone. Using a Smart System (Panlab, S. L., Spain) the traveled distance in cm is recorded for each mouse at 5-minutes intervals during a period of 30 minutes after dosing. The inhibition percentage of traveled distance of treated animals versus control animals (the first 5 minutes were discarded) was calculated.

On to `CCN(CC)C(=O)Cc1c(-c2ccc(C)cc2)nc2ccc(Cl)nn12` [Example 1, 2-(6-Chloro-2-p-tolyl-imidazo[1,2-b]pyridazin-3-yl)-N,N-diethyl-acetamide], for which the inhibition in vivo at 0.98 µmol/kg is 27.6% and the inhibition in vivo at 98 µmol/kg was 94.7%.

For `Cc1ccc(-c2nc3ccc(Cl)nn3c2CC(=O)N2CCCCC2)cc1` [Example 4, 2-(6-Chloro-2-p-tolyl-imidazo[1,2-b]pyridazin-3-yl)-1-piperidin-1-yl-ethanone], the inhibition in vivo at 0.98 µmol/kg is 38.4% and the inhibition in vivo at 98 µmol/kg is 94.7%.

Turning to `Cc1ccc(-c2nc3ccc(Cl)nn3c2CC(=O)N2CCOCC2)cc1` [Example 5, 2-(6-Chloro-2-p-tolyl-imidazo[1,2-b]pyridazin-3-yl)-1-morpholin-4-yl-ethanone], the inhibition in vivo at 0.98 µmol/kg was 41.1% and the inhibition in vivo at 98 µmol/kg is 93.7%.

In the case of `Cc1ccc(-c2nc3ccc(Cl)nn3c2CC(=O)N2CCCC2)cc1` [Example 6, 2-(6-Chloro-2-p-tolyl-imidazo[1,2-b]pyridazin-3-yl)-1-pyrrolidin-1-yl-ethanone], the inhibition in vivo at 0.98 µmol/kg is 51.9% and the inhibition in vivo at 98 µmol/kg is 96.9%.

In the case of `CCOc1ccc2nc(-c3ccc(Br)cc3)c(CC(=O)N3CCOCC3)n2n1` [Example 9, 2-[2-(4-Bromo-phenyl)-6-ethoxy-imidazo[1,2-b]pyridazin-3-yl]-1-morpholin-4-yl-ethanone], the inhibition in vivo at 0.98 µmol/kg is 19.9% and the inhibition in vivo at 98 µmol/kg was 93.8%.

Turning to `CCOc1ccc2nc(-c3ccc(Br)cc3)c(CC(=O)N3CCCCC3)n2n1` [Example 10, 2-[2-(4-Bromo-phenyl)-6-ethoxy-imidazo[1,2-b]pyridazin-3-yl]-1-piperidin-1-yl-ethanone], the inhibition in vivo at 0.98 µmol/kg is 29.5% and the inhibition in vivo at 98 µmol/kg is 93.5%.

As for `CCCCN(CCCC)C(=O)Cc1c(-c2ccc(Br)cc2)nc2ccc(OCC)nn12` [Example 11, 2-[2-(4-Bromo-phenyl)-6-ethoxy-imidazo[1,2-b]pyridazin-3-yl]-N,N-dibutyl-acetamide], the inhibition in vivo at 0.98 µmol/kg was 15.3% and the inhibition in vivo at 98 µmol/kg is 79.8%.

Regarding `CCCN(CCC)C(=O)Cc1c(-c2ccc(Br)cc2)nc2ccc(OCC)nn12` [Example 12, 2-[2-(4-Bromo-phenyl)-6-ethoxy-imidazo[1,2-b]pyridazin-3-yl]-N,N-dipropyl-acetamide], the inhibition in vivo at 0.98 µmol/kg was 15.1% and the inhibition in vivo at 98 µmol/kg is 83.4%.

Take `CCOc1ccc2nc(-c3ccc(Br)cc3)c(CC(=O)N(CC)CC)n2n1` [Example 13, 2-[2-(4-Bromo-phenyl)-6-ethoxy-imidazo[1,2-b]pyridazin-3-yl]-N,N-diethyl-acetamide]: the inhibition in vivo at 0.98 µmol/kg is 15.1% and the inhibition in vivo at 98 µmol/kg is 92.1%.

Take `Cc1ccc2nc(-c3ccc(Br)cc3)c(CC(=O)N3CCOCC3)n2n1` [Example 14, 2-[2-(4-Bromo-phenyl)-6-methyl-imidazo[1,2-b]pyridazin-3-yl]-1-morpholin-4-yl-ethanone]: the inhibition in vivo at 0.98 µmol/kg is 4.77% and the inhibition in vivo at 98 µmol/kg was 95.6%.

`CCCN(CCC)C(=O)Cc1c(-c2ccc(Br)cc2)nc2ccc(C)nn12` [Example 17, 2-[2-(4-Bromo-phenyl)-6-methyl-imidazo[1,2-b]pyridazin-3-yl]-N,N-dipropyl-acetamide]: the inhibition in vivo at 0.98 µmol/kg was 9.91% and the inhibition in vivo at 98 µmol/kg is 93.1%.

On to `CCOc1ccc2nc(-c3ccc(Cl)cc3)c(CC(=O)N(CC)CC)n2n1` [Example 20, 2-[2-(4-Chloro-phenyl)-6-ethoxy-imidazo[1,2-b]pyridazin-3-yl]-N,N-diethyl-acetamide], for which the inhibition in vivo at 98 µmol/kg is 91.5%.

As to `CCCCN(CCCC)C(=O)Cc1c(-c2ccc(Cl)cc2)nc2ccc(C)nn12` [Example 22, N,N-Dibutyl-2-[2-(4-chloro-phenyl)-6-methyl-imidazo[1,2-b]pyridazin-3-yl]-acetamide], the inhibition in vivo at 0.98 µmol/kg is 22.2% and the inhibition in vivo at 98 µmol/kg is 88%.

Take `CCCN(CCC)C(=O)Cc1c(-c2ccc(Cl)cc2)nc2ccc(OCC)nn12` [Example 23, 2-[2-(4-Chloro-phenyl)-6-ethoxy-imidazo[1,2-b]pyridazin-3-yl]-N,N-dipropyl-acetamide]: the inhibition in vivo at 0.98 µmol/kg was 12.4% and the inhibition in vivo at 98 µmol/kg was 91.7%.

For `CCCCN(CCCC)C(=O)Cc1c(-c2ccc(Cl)cc2)nc2ccc(OCC)nn12` [Example 24, N,N-Dibutyl-2-[2-(4-chloro-phenyl)-6-ethoxy-imidazo[1,2-b]pyridazin-3-yl]-acetamide], the inhibition in vivo at 0.98 µmol/kg was 3.65% and the inhibition in vivo at 98 µmol/kg is 86.5%.

Turning to `CCCCN(CCCC)C(=O)Cc1c(-c2ccc(F)cc2)nc2ccc(C)nn12` [Example 40, N,N-Dibutyl-2-[2-(4-fluoro-phenyl)-6-methyl-imidazo[1,2-b]pyridazin-3-yl]-acetamide], the inhibition in vivo at 98 µmol/kg was 91.8%.

Regarding `CCCCN(CCCC)C(=O)Cc1c(-c2ccc(F)cc2)nc2ccc(OC)nn12` [Example 42, N,N-Dibutyl-2-[2-(4-fluoro-phenyl)-6-methoxy-imidazo[1,2-b]pyridazin-3-yl]-acetamide], the inhibition in vivo at 98 µmol/kg was 91%.

Consider `CCCCN(CCCC)C(=O)Cc1c(-c2ccc(OC)cc2)nc2ccc(C)nn12` [Example 72, N,N-Dibutyl-2-[2-(4-methoxy-phenyl)-6-methyl-imidazo[1,2-b]pyridazin-3-yl]-acetamide], for which the inhibition in vivo at 98 µmol/kg is 93.3%.

Turning to `CCCCN(CCCC)C(=O)Cc1c(-c2ccc(OC)cc2)nc2ccc(OC)nn12` [Example 77, N,N-Dibutyl-2-[6-methoxy-2-(4-methoxy-phenyl)-imidazo[1,2-b]pyridazin-3-yl]-acetamide], the inhibition in vivo at 98 µmol/kg is 89.3%.

As for `CCCN(CCOC(C)=O)C(=O)Cc1c(-c2ccc(C)cc2)nc2ccc(C)nn12` [Example 80, Acetic acid 2-{[2-(6-methyl-2-p-tolyl-imidazo[1,2-b]pyridazin-3-yl)-acetyl]-propyl-amino}-ethyl ester], the inhibition in vivo at 98 µmol/kg was 94.4%.

Consider `Cc1ccc(-c2nc3ccc(C)nn3c2CC(=O)N2CC(C)CC(C)C2)cc1` (stereo not shown) [Example 81, 1-(3,5-Dimethyl-piperidin-1-yl)-2-(6-methyl-2-p-tolyl-imidazo[1,2-b]pyridazin-3-yl)-ethanone], for which the inhibition in vivo at 98 µmol/kg is 90.8%.

`Cc1ccc2nc(-c3ccc(Br)cc3)c(CC(=O)NN)n2n1` [Example 100, [2-(4-Bromo-phenyl)-6-methyl-imidazo[1,2-b]pyridazin-3-yl]-acetic acid hydrazide]: the inhibition in vivo at 98 µmol/kg was 93.7%.

As to `Cc1ccc2nc(-c3ccc(Cl)cc3)c(CC(=O)NN)n2n1` [Example 102, [2-(4-Chloro-phenyl)-6-methyl-imidazo[1,2-b]pyridazin-3-yl]-acetic acid hydrazide], the inhibition in vivo at 98 µmol/kg was 85.5%.
